According to the NIST ThermoML archive (doi:10.1016/j.fluid.2013.01.004):
± gives the expanded uncertainty stated by the source.

Tests used:
[1] = wn = mass fraction of the nth substance listed; conditions: 323.15 K, 101 kPa, Liquid, Pycnometric method
[2] = refractive index (Na D-line) (dimensionless); wn = mass fraction of the nth substance listed; conditions: 323.15 K, 101 kPa, Liquid, Standard Abbe refractometry

mass density ([1]; w1 = 0.338)	refractive index ([2]; w1 = 0.338)	mass density ([1]; w1 = 0.5202)	refractive index ([2]; w1 = 0.5202)	Compound
1387.2 ± 2.1 kg/m3	1.3982 ± 0.0012			O=S(=O)([O-])[O-].[Mg+2] [magnesium sulfate] + O
		1662.2 ± 9.3 kg/m3	1.462 ± 0.0013	[Br-].[Br-].[Mg+2] [magnesium bromide (MgBr2)] + O
